Assay results as given in ChEMBL document CHEMBL3769405, “Discovery of Potent and Selective Inhibitors of Phosphodiesterase 1 for the Treatment of Cognitive Impairment Associated with Neurodegenerative and Neuropsychiatric Diseases” (J Med Chem, 2016).
Converted amounts (≈) assume the structure as drawn.

Tests used:
[1] = Inhibition of bovine brain PDE1 using fluorescent labeled cGMP as substrate after 15 mins by IMAP assay; set-up: species or system Bos taurus
[2] = molecular target: 3',5'-cyclic-AMP phosphodiesterase 4A (Homo sapiens, UniProt P27815); assay: Inhibition of recombinant full lenght human PDE4A using fluorescent labeled cAMP as substrate after 15 mins by IMAP assay
Sequence of 3',5'-cyclic-AMP phosphodiesterase 4A (P27815 whole entry): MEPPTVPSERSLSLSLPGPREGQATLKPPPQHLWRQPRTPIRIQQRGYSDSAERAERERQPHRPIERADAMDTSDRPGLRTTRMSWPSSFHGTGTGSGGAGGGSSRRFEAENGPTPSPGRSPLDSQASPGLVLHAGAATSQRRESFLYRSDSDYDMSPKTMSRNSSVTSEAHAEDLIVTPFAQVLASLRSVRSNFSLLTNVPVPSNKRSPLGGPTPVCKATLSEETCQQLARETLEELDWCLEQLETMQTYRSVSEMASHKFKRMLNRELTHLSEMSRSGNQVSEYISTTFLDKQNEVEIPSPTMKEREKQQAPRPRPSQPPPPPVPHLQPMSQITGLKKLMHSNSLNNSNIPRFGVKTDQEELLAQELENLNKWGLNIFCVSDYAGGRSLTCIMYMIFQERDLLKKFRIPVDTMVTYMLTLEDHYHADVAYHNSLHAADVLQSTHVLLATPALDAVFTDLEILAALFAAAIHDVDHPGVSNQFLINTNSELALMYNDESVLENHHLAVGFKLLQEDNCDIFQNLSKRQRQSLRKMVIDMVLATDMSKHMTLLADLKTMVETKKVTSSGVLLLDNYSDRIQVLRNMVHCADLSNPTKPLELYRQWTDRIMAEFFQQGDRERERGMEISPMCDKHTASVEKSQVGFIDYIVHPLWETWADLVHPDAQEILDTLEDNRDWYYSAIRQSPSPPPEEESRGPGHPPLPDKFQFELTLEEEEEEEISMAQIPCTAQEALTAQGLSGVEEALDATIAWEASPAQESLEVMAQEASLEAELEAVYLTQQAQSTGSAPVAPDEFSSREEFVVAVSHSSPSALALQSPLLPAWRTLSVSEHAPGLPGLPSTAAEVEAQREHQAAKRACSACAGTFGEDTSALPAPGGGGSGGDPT

[3] = Selectivity ratio of Ki for recombinant full lenght human PDE4A to bovine brain PDE1
[4] = Intrinsic clearance in human liver microsomes; assay type: ADME; conditions: read-out: CLH
[5] = Lipophilicity, logD of compound at pH 7.4; assay type: physicochemical; conditions: buffer
[6] = Lipophilicity, logD of compound at pH 1.7; assay type: physicochemical; conditions: buffer
[7] = Solubility of compound in PBS; assay type: physicochemical
[8] = Cmax in C57BL/6 mouse plasma at 10 mg/kg administered through oral gavage; assay type: ADME, organism-based; set-up: dose 10 mg/kg, route oral
[9] = Cmax in C57BL/6 mouse brain at 10 mg/kg administered through oral gavage; assay type: ADME, organism-based; set-up: dose 10 mg/kg, route oral
[10] = AUClast in C57BL/6 mouse plasma at 10 mg/kg administered through oral gavage; assay type: ADME, organism-based; set-up: dose 10 mg/kg, time 0 - last, route oral
[11] = AUClast in C57BL/6 mouse brain at 10 mg/kg administered through oral gavage; assay type: ADME, organism-based; set-up: dose 10 mg/kg, time 0 - last, route oral
[12] = in vivo; conditions: C57BL/6, mouse, brain/plasma

Ki [1]	Ki [2]	Ratio Ki [3]	Structure (SMILES)	further results
250 nM	> 100000 nM	> 400	CN1C(=O)c2c(nn(Cc3ccc(-c4ccccc4)cc3)c2Nc2ccccc2)N2C[C@@H](COCc3ccccc3)N=C12	–
31 nM	740 nM	24	CN1C(=O)c2c(nn(Cc3ccc(-c4cccc(F)n4)cc3)c2N(C)c2ccccc2)N2C1=N[C@@H]1CCC[C@@H]12	–
6.6 nM	220 nM	33	CN1C(=O)c2c(nn(Cc3ccc(-c4cccc(F)n4)cc3)c2Oc2ccc(F)cc2)N2C1=N[C@@H]1CCC[C@@H]12	CLint scaled [4]: 266 mL/min/kg; logD [5]: 4.77; logD [6]: 1.21; solubility [7]: 7 µM (≈ 3.69 µg/mL); Cmax [8]: 88 ng/mL; Cmax [9]: 64 ng/mL; AUC(0-t) [10]: 119 ng·h/mL; AUC(0-t) [11]: 102 ng·h/mL; Kp [12]: 0.9
5.2 nM	930 nM	179	CN1C(=O)c2c(nn(Cc3ccc(-c4cccc(F)n4)cc3)c2Sc2ccccc2)N2C1=N[C@@H]1CCC[C@@H]12	CLint scaled [4]: 208 mL/min/kg; logD [5]: > 5; logD [6]: 2.49; solubility [7]: < 1 µM; Cmax [8]: 93 ng/mL; Cmax [9]: 71 ng/mL; AUC(0-t) [10]: 108 ng·h/mL; AUC(0-t) [11]: 81 ng·h/mL; Kp [12]: 0.8
120 nM	1100 nM	9.2	CN1C(=O)c2c(nn(Cc3ccc(-c4cccc(F)n4)cc3)c2N(C)C)N2C1=N[C@@H]1CCC[C@@H]12	–
4.9 nM	4000 nM	816	CN1C(=O)c2c(nn(Cc3ccc(-c4cccc(F)n4)cc3)c2NCc2ccccc2)N2C1=N[C@@H]1CCC[C@@H]12	–
1400 nM	–	7	CN1C(=O)c2c(Nc3ccccc3)n[nH]c2N2C1=N[C@@H]1CCC[C@@H]12	–
5.4 nM	–	–	CN1C(=O)c2c(nn(Cc3ccc(-c4cccc(F)n4)cc3)c2Nc2ccccc2)N2C1=N[C@H]1CCC[C@H]12	CLint scaled [4]: 51 mL/min/kg
6 nM	4100 nM	683	CN1C(=O)c2c(nn(Cc3ccc(-c4ccccc4)cc3)c2Nc2ccccc2)N2C[C@@H](CO)N=C12	–
25 nM	18000 nM	720	CN1Cc2c(nn(Cc3ccc(-c4ccccn4)cc3)c2Nc2ccccc2)N2C1=N[C@@H]1CCC[C@@H]12	CLint scaled [4]: 59 mL/min/kg
1.3 nM	2600 nM	2000	CCCC(C)Nc1c2c(nn1Cc1ccc(-c3cccc(F)n3)cc1)N1C(=N[C@@H]3CCC[C@@H]31)N(C)C2=O (some centres undefined)	–
2.3 nM	780 nM	339	CN1C(=O)c2c(nn(Cc3ccc(-c4cccc(F)n4)cc3)c2Cc2ccc(F)cc2)N2C1=N[C@@H]1CCC[C@@H]12	CLint scaled [4]: 81 mL/min/kg; logD [5]: > 5; logD [6]: 1.42; solubility [7]: < 1 µM; Cmax [8]: 44 ng/mL; Cmax [9]: 81 ng/mL; AUC(0-t) [10]: 69 ng·h/mL; AUC(0-t) [11]: 109 ng·h/mL; Kp [12]: 1.6
5.8 nM	2400 nM	414	CN1C(=O)c2c(nn(Cc3ccc(-c4cccc(F)n4)cc3)c2N)N2C1=N[C@@H]1CCC[C@@H]12	–
12 nM	5500 nM	458	CC(C)Nc1c2c(nn1Cc1ccc(-c3cccc(F)n3)cc1)N1C(=N[C@@H]3CCC[C@@H]31)N(C)C2=O	–
0.49 nM	65 nM	133	CN1C(=O)c2c(nn(Cc3ccc(S(C)(=O)=O)cc3)c2Nc2ccccc2)N2C1=N[C@@H]1CCC[C@@H]12	–
2.3 nM	1500 nM	652	CC(C)[C@@H]1CN2C(=N1)N(C)C(=O)c1c2nn(Cc2ccc(-c3ccccc3)cc2)c1Nc1ccccc1	–
4.8 nM	9900 nM	2060	CN1C(=O)c2c(nn(Cc3ccc(-c4ccccc4)cc3)c2Nc2ccccc2)N2CC(C)(C)CN=C12	–
28 nM	4300 nM	154	CNc1c2c(nn1Cc1ccc(-c3cccc(F)n3)cc1)N1C(=N[C@@H]3CCC[C@@H]31)N(C)C2=O	–
2800 nM	18000 nM	6.4	CN1C(=N)c2c(nn(Cc3ccc(C(F)(F)F)cc3)c2Nc2ccccc2)N2C1=N[C@@H]1CCC[C@@H]12	CLint scaled [4]: 32 mL/min/kg
2.8 nM	1600 nM	571	CN1C(=O)c2c(nn(Cc3ccc(-c4cccc(F)n4)cc3)c2NC2CCCCC2)N2C1=N[C@@H]1CCC[C@@H]12	–
14 nM	12000 nM	857	CN1C(=O)c2c(nn(Cc3ccc(-c4ccccc4)cc3)c2Nc2ccccc2)N2CC(C3CCOC3)N=C12 (centres undefined)	–
7.4 nM	6300 nM	851	CC(C)CNc1c2c(nn1Cc1ccc(-c3cccc(F)n3)cc1)N1C(=N[C@@H]3CCC[C@@H]31)N(C)C2=O	–

Ki [1]	Ki [2]	Ratio Ki [3]	Structure (SMILES)	further results
2.2 nM	770 nM	350	CN1C(=O)c2c(nn(Cc3ccc(-c4cccc(F)n4)cc3)c2Cc2ccccc2)N2C1=N[C@@H]1CCC[C@@H]12	CLint scaled [4]: 165 mL/min/kg; logD [5]: 4.96; logD [6]: 1.36; solubility [7]: < 1 µM; Cmax [8]: 86 ng/mL; Cmax [9]: 101 ng/mL; AUC(0-t) [10]: 134 ng·h/mL; AUC(0-t) [11]: 154 ng·h/mL; Kp [12]: 1.2
0.15 nM	–	–	CN1C(=O)c2c(nn(Cc3ccc(-c4cccc(F)n4)cc3)c2Nc2ccccc2)N2C1=N[C@@H]1CCC[C@@H]12 [LENRISPODUN]	–
1.6 nM	1200 nM	750	CN1C(=O)c2c(nn(Cc3ccc(C4CCCN4)cc3)c2Nc2ccccc2)N2C1=N[C@@H]1CCC[C@@H]12 (some centres undefined)	–
3.3 nM	3400 nM	1030	C[C@@H]1CN2C(=N1)N(C)C(=O)c1c2nn(Cc2ccc(-c3ccccc3)cc2)c1Nc1ccccc1	–
0.074 nM	500 nM	6760	CN1C(=O)c2c(nn(Cc3ccc(-c4ccc(F)cn4)cc3)c2Nc2ccccc2)N2C1=N[C@@H]1CCC[C@@H]12	CLint scaled [4]: 125 mL/min/kg
44 nM	37000 nM	841	CN1Cc2c(nn(Cc3ccc(C(F)(F)F)cc3)c2Nc2ccccc2)N2C1=N[C@@H]1CCC[C@@H]12	CLint scaled [4]: 64 mL/min/kg
0.073 nM	200 nM	2740	CN1C(=O)c2c(nn(Cc3ccc(-c4ncccc4F)cc3)c2Nc2ccccc2)N2C1=N[C@@H]1CCC[C@@H]12	CLint scaled [4]: 276 mL/min/kg
160 nM	4600 nM	29	CN1C(=O)c2c(nn(Cc3ccc(-c4cccc(F)n4)cc3)c2N2CCCC2)N2C1=N[C@@H]1CCC[C@@H]12	–
0.062 nM	330 nM	5320	CN1C(=O)c2c(nn(Cc3ccc(-c4cc(F)ccn4)cc3)c2Nc2ccccc2)N2C1=N[C@@H]1CCC[C@@H]12	CLint scaled [4]: 218 mL/min/kg
5.3 nM	8400 nM	–	CN1C(=O)c2c(nn(Cc3ccc(-c4ccccn4)cc3)c2Nc2ccccc2)N2C1=N[C@H]1CCC[C@H]12	CLint scaled [4]: 72 mL/min/kg
24 nM	5500 nM	229	CN1C(=O)c2c(nn(Cc3ccc(-c4cccc(F)n4)cc3)c2NC2CCCC2)N2C1=N[C@@H]1CCC[C@@H]12	–
2.7 nM	3100 nM	1150	CN1C(=O)c2c(nn(Cc3ccc(C4CCCN4C)cc3)c2Nc2ccccc2)N2C1=N[C@@H]1CCC[C@@H]12 (some centres undefined)	–
31 nM	370 nM	12	CN1C(=O)c2c(nn(Cc3ccc(-c4cccc(F)n4)cc3)c2Nc2ccncc2)N2C1=N[C@@H]1CCC[C@@H]12	–
390 nM	13000 nM	33	CN1C(=O)c2c(nn(Cc3ccc(-c4ccccc4)cc3)c2Nc2ccccc2)N2C[C@@H](Cc3ccccc3)N=C12	–
0.41 nM	460 nM	1120	CN1C(=O)c2c(nn(Cc3ccc(-c4ccc(F)cc4)cc3)c2Nc2ccccc2)N2C1=N[C@@H]1CCC[C@@H]12	–
770 nM	2000 nM	2.6	CN1C(=O)c2c(Nc3ccccc3)nn(CC3CCCC3)c2N2C1=N[C@@H]1CCC[C@@H]12	–
290 nM	550 nM	2	O=C1NC2=N[C@@H]3CCC[C@@H]3N2c2nn(Cc3ccc(C(F)(F)F)cc3)c(Nc3ccccc3)c21	CLint scaled [4]: 22 mL/min/kg
29 nM	44000 nM	1520	CN1C(=O)c2c(nn(Cc3ccc(-c4ccccc4)cc3)c2Nc2ccccc2)N2CCN=C12	–
65 nM	> 100000 nM	> 1500	CN1C(=O)c2c(nn(Cc3ccc(-c4ccccc4)cc3)c2Nc2ccccc2)N2CCCN=C12	–
1.4 nM	1200 nM	857	CN1C(=O)c2c(nn(Cc3ccc(S(N)(=O)=O)cc3)c2Nc2ccccc2)N2C1=N[C@@H]1CCC[C@@H]12	logD [5]: 1.96; logD [6]: -0.96; solubility [7]: > 100 µM; Cmax [8]: 650 ng/mL; Cmax [9]: 16 ng/mL; AUC(0-t) [10]: 785 ng·h/mL; AUC(0-t) [11]: 15 ng·h/mL; Kp [12]: 0.02
15 nM	6200 nM	413	CCCNc1c2c(nn1Cc1ccc(-c3cccc(F)n3)cc1)N1C(=N[C@@H]3CCC[C@@H]31)N(C)C2=O	–
8 nM	30000 nM	3750	C[C@H]1CN=C2N(C)C(=O)c3c(nn(Cc4ccc(-c5ccccc5)cc4)c3Nc3ccccc3)N21	–
